According to paper PMC10945559, “Forgotten Natural Products: Semisynthetic Development of Blasticidin S As an Antibiotic Lead” (ACS Medicinal Chemistry Letters, 2024):
Converted amounts (≈) assume the structure as drawn. Read-outs that look alike come from different tables or passages of the source.

Experiments:
in vitro = format: cell-based, human; conditions: human; MRC-5 (lung fibroblast); 24 h; one biological replicate (n = 3); read-out: CC50 for human cells
Procedure: (§1) as a range from biological replicates. Inhibition curves were generated using Prism (GraphPad).
(§2) The IC50 values reported in Table 2 are the average of the two biological replicates ± standard […]
(§3) Cytotoxicity Assay Procedure
(§4) Human lung fibroblast cells, MRC -5 (CCL-171), were cultured at 37℃ with 5% CO2 and were plated at 5000 cells/well in a 96 -well plate. Compounds 1, 2, and 15-22 were initially prepared at concentrations of 5.12 mg/mL in a vehicle of 50% DMSO. Dilutions of the compounds (4 – 512 μg/mL) were then prepared in growth medium containing Dulbecco’s modified Eagle’s medium (DMEM) with high glucose, L -glutamine, and sodium pyruvate supplemented with 10% fetal bovine serum (FBS), 1% non -essential amino acids, and 0.1% gentamicin sulfate, and 25mM HEPES. The vehicle (50% DMSO) was also prepared via the sa me dilution series to serve as a control. Growth media was removed from the cells and replaced with the same volume of each compound dilution. Cells were incubated for 24 h , after which CellTiter 96® AQueous One Solution Reagent was added to each well as recommended by the manufacturer’s protocol (Promega CellTiter 96 AQueous One Solution Cell Proliferation Assay) and further incubated for 4 h. After incubation, absorbance was measured at 490 nm on an Infinite M plex multimode microplate reader with i -control Tecan software. Viability was calculated by subtracting media only absorbance values and normalizing to the vehicle control at each concentration. The presented data is one assay performed in triplicate that is representative of multiple trials. Data for the 256 and 512 μg/mL concentrations were removed from analysis due to vehicle toxicity […]
(§5) CC50 concentrations were determined via the ED50 Plus v1.0 software (https://archive.org/details/ed50v10_zip).
Figure S41. The effect of compounds on cell viability. The lines represent non -linear regression curves, and error bars represent means ± […]
SD (n=3). […]

S. aureus 8810 = experiment: Broth microdilution antibacterial assay; format: cell-based, Staphylococcus aureus; conditions: for Selectivity index (CC50/IC50): MRC-5 CC50 / S. aureus IC50
Procedure: (§6) Antibacterial Assay Procedure
(§7) Broth Microdilution Assays
(§8) Media and solutions were autoclaved or sterile filtered prior to use and manipulations were carried out in a laminar flow hood. Antibacterial testing was performed in polypropylene 96 -well flat bottom plates. The minimal inhibitory concentration of blasticidin S ( 1) hydrochloride, P10 (2), and derivatives 15–22 were assessed against Staphylococcus aureus ΔNorA, S. aureus 8810, methicillin-resistant S. aureus (MRSA) ATCC 43300, Enterococcus faecalis ATCC 29212, vancomycin-resistant Enterococcus, Klebsiella pneumoniae ATCC 29665, Pseudomonas aeruginosa, and Acinetobacter baumannii ATCC 17978 using serial dilutions. Doxycycline (Gold Bio) as a positive control and the vehicle as a negative control. Stock solutions of each compound were prepared at 5.12 mg/mL in 50% DMSO/water and serially diluted in 50% DMSO/water to create master plates. From the master plates, 10 μL of each dilution was applied to test plates using a Bravo automated liquid transfer system (Agilent). Bacteria previously grown overnight (37 °C, 120 – 200 RPM), in LB broth were diluted to an OD600 of 0.0 5 in cation-adjusted Mueller-Hinton broth, grown to an OD600 of ~0.5, and diluted to an OD600 of 0.004 in cation-adjusted Mueller-Hinton broth. These diluted cultures were applied to the test plates (190 μL per test well) resulting in final concentrations of the test compounds of 256–2 μg/mL. Growth controls (wells with inoculated media but no vehicle or test compounds) were included to assess any potential toxicity from the vehicle. The plates were incubated at 37 °C for 16–18 h, except for VRE and E. faecalis, which were incubated at 37 °C for 24 h. Inhibition was determined by measuring the optical density at 600 nm (OD600) with a Cytation 3 plate reader (BioTek). The optical density measurements were normalized to the positive and negative controls and the vehicle and growth controls were compared and found to be indistinguishable, indicating no toxicity from the vehicle used. The MIC was the lowest concentration that inhibited >90% of growth. Two biological replicates were performed in duplicate. MIC values are reported […]
as §1, §2, §3, §4, §5

[1] = tested on: methicillin-resistant S. aureus (MRSA) ATCC 43300; experiment: Broth microdilution antibacterial assay; format: cell-based, Staphylococcus aureus; conditions: for Selectivity index (CC50/IC50): MRC-5 CC50 / MRSA IC50; for IC50 / MIC: Staphylococcus aureus
Procedure: as §6, §7, §8, §1, §2, §3, §4, §5

[2] = tested on: Staphylococcus aureus ΔNorA; experiment: Broth microdilution antibacterial assay; format: cell-based; conditions: for Selectivity index (CC50/IC50): MRC-5 CC50 / S. aureus ΔNorA IC50; for IC50 / MIC: Staphylococcus aureus
Procedure: as §6, §7, §8, §1, §2, §3, §4, §5

Pseudomonas aeruginosa = experiment: Broth microdilution antibacterial assay; format: cell-based; conditions: for Selectivity index (CC50/IC50): MRC-5 CC50 / P. aeruginosa IC50; for IC50 / MIC: Pseudomonas aeruginosa
Procedure: as §6, §7, §8, §1, §2, §3, §4, §5

[3] = tested on: Klebsiella pneumoniae ATCC 29665; experiment: Broth microdilution antibacterial assay; format: cell-based; conditions: for IC50 / MIC: Klebsiella pneumoniae, ATCC29665; for Selectivity index (CC50/IC50): MRC-5 CC50 / K. pneumoniae IC50
Procedure: as §6, §7, §8, §1, §2, §3, §4, §5

[4] = tested on: Acinetobacter baumannii ATCC 17978; experiment: Broth microdilution antibacterial assay; format: cell-based; conditions: for IC50 / MIC: Acinetobacter baumannii, ATCC17978; for Selectivity index (CC50/IC50): MRC-5 CC50 / A. baumannii IC50
Procedure: as §6, §7, §8, §1, §2, §3, §4, §5

[5] = tested on: Enterococcus faecalis ATCC 29212; experiment: Broth microdilution antibacterial assay; format: cell-based; conditions: for IC50 / MIC: Enterococcus faecalis; for Selectivity index (CC50/IC50): MRC-5 CC50 / E. faecalis IC50
Procedure: as §6, §7, §8, §1, §2, §3, §4, §5

[6] = tested on: vancomycin-resistant Enterococcus (VRE); experiment: Broth microdilution antibacterial assay; format: cell-based; conditions: for IC50 / MIC: Enterococcus, VRE; for Selectivity index (CC50/IC50): MRC-5 CC50 / VRE IC50
Procedure: as §6, §7, §8, §1, §2, §3, §4, §5

[7] = Staphylococcus aureus, 8810, S. aureus, average of two biological replicates ± S.D., read-out: IC50
[8] = Staphylococcus aureus, 8810, S. aureus, lowest concentration inhibiting >90% of growth, range from biological replicates, read-out: MIC
[9] = Staphylococcus aureus, 8810, average MIC, Table S3, read-out: Average Activity against S. aureus
[10] = MRSA, average of two biological replicates ± S.D., read-out: IC50
[11] = MRSA, lowest concentration inhibiting >90% of growth, range from biological replicates, read-out: MIC
[12] = average MIC, Table S3, read-out: Average Activity against MRSA
[13] = P. aeruginosa, average of two biological replicates ± S.D., read-out: IC50
[14] = P. aeruginosa, lowest concentration inhibiting >90% of growth, range from biological replicates, read-out: MIC
[15] = K. pneumoniae, average of two biological replicates ± S.D., read-out: IC50
[16] = K. pneumoniae, lowest concentration inhibiting >90% of growth, range from biological replicates, read-out: MIC
[17] = A. baumannii, average of two biological replicates ± S.D., read-out: IC50
[18] = A. baumannii, lowest concentration inhibiting >90% of growth, range from biological replicates, read-out: MIC
[19] = ATCC29212, E. faecalis, 24 h, lowest concentration inhibiting >90% of growth, range from biological replicates, read-out: MIC
[20] = ATCC29212, E. faecalis, average of two biological replicates ± S.D. (18: one biological replicate), read-out: IC50
[21] = ATCC29212, average MIC, Table S3, read-out: Average Activity against E. faecalis
[22] = average MIC, Table S3, read-out: Average Activity against VRE
[23] = 24 h, lowest concentration inhibiting >90% of growth, range from biological replicates, read-out: MIC
[24] = average of two biological replicates ± S.D., read-out: IC50

SMILES | CC50 at 24 h (in vitro) [µg/mL] | Selectivity index (CC50/IC50) (S. aureus 8810) | Selectivity index (CC50/IC50) [1] | Selectivity index (CC50/IC50) [2] | IC50 [2] [µg/mL] | MIC [2] [µg/mL] | Selectivity index (CC50/IC50) (Pseudomonas aeruginosa) | Selectivity index (CC50/IC50) [3] | Selectivity index (CC50/IC50) [4] | Selectivity index (CC50/IC50) [5] | Selectivity index (CC50/IC50) [6] | IC50 (S. aureus 8810; [7]) [µg/mL] | MIC (S. aureus 8810; [8]) [µg/mL] | MIC (S. aureus 8810; [9]) [µg/mL] | IC50 [1, 10] [µg/mL] | MIC [1, 11] [µg/mL] | MIC [1, 12] [µg/mL] | IC50 (Pseudomonas aeruginosa; [13]) [µg/mL] | MIC (Pseudomonas aeruginosa; [14]) [µg/mL] | IC50 [3, 15] [µg/mL] | other results
CCCNC(=O)[C@H]1O[C@@H](n2ccc(N)nc2=O)C=C[C@@H]1NC(=O)C[C@@H](N)CCN(C)C(=N)N [Compound 17] | 61.1 (≈ 132 µM) | 16 | 8.1 | 3.9 | 15.8 ± 1.1 (≈ 34.1 µM) | 64 to 128 (≈ 138 to 276 µM) | 3.2 | 1.4 | 1.6 | 6.6 | 3.6 |  |  |  |  |  |  |  |  |  | IC50 (S. aureus 8810; Staphylococcus aureus, 8810): 3.9 ± 0.1 µg/mL (≈ 8.41 µM); MIC (S. aureus 8810; Staphylococcus aureus, 8810): 16 to 32 µg/mL (≈ 34.5 to 69 µM); MIC (S. aureus 8810; Staphylococcus aureus, 8810, read-out: Average Activity against S. aureus): 24 µg/mL (≈ 51.8 µM); IC50 [1]: 7.6 ± 0.8 µg/mL (≈ 16.4 µM); MIC [1]: 16 to 32 µg/mL (≈ 34.5 to 69 µM); MIC ([1]; read-out: Average Activity against MRSA): 24 µg/mL (≈ 51.8 µM); IC50 (Pseudomonas aeruginosa): 19.3 ± 1.6 µg/mL (≈ 41.6 µM); MIC (Pseudomonas aeruginosa): 64 µg/mL (≈ 138 µM); IC50 [3]: 44.9 ± 3.2 µg/mL (≈ 96.9 µM); MIC [3]: 128 to 256 µg/mL (≈ 276 to 552 µM); IC50 [4]: 39.3 ± 1.9 µg/mL (≈ 84.8 µM); MIC [4]: > 256 µg/mL; IC50 ([5]; ATCC29212): 9.3 ± 1.7 µg/mL (≈ 20.1 µM); MIC ([5]; ATCC29212, 24 h): 16 to 32 µg/mL (≈ 34.5 to 69 µM); MIC ([5]; ATCC29212, read-out: Average Activity against E. faecalis): 16 µg/mL (≈ 34.5 µM); IC50 [6]: 16.8 ± 3.1 µg/mL (≈ 36.2 µM); MIC ([6]; 24 h): 64 µg/mL (≈ 138 µM); MIC ([6]; read-out: Average Activity against VRE): 64 µg/mL (≈ 138 µM)
C#CCCNC(=O)[C@H]1O[C@@H](n2ccc(N)nc2=O)C=C[C@@H]1NC(=O)C[C@@H](N)CCN(C)C(=N)N [Compound 20] | 65.9 (≈ 139 µM) | 26 | 9.1 | 4.3 | 15.2 ± 2.1 (≈ 32.1 µM) | 64 (≈ 135 µM) | 3.3 | 2.2 | 2.7 | 5.9 | 3.0 | 2.5 ± 0.2 (≈ 5.28 µM) | 16 (≈ 33.8 µM) | 16 (≈ 33.8 µM) | 7.2 ± 2.3 (≈ 15.2 µM) | 32 (≈ 67.6 µM) | 32 (≈ 67.6 µM) | 20.2 ± 1.3 (≈ 42.7 µM) | 64 (≈ 135 µM) | 30.7 ± 5.3 (≈ 64.8 µM) | MIC [3, 16]: 128 µg/mL (≈ 270 µM); IC50 [4, 17]: 24.3 ± 3.2 µg/mL (≈ 51.3 µM); MIC [4, 18]: 128 µg/mL (≈ 270 µM); MIC [5, 19]: 16 to 32 µg/mL (≈ 33.8 to 67.6 µM); IC50 [5, 20]: 11.1 ± 4.1 µg/mL (≈ 23.4 µM); MIC [5, 21]: 16 µg/mL (≈ 33.8 µM); MIC [6, 22]: 64 µg/mL (≈ 135 µM); MIC [6, 23]: 64 µg/mL (≈ 135 µM); IC50 [6, 24]: 22.1 ± 12 µg/mL (≈ 46.7 µM)
CN(CC[C@H](N)CC(=O)N[C@H]1C=C[C@H](n2ccc(N)nc2=O)O[C@@H]1C(=O)NCCO)C(=N)N [Compound 21] | 58.1 (≈ 125 µM) | 7.1 | 4.9 | 1.6 | 35.5 ± 2.5 (≈ 76.3 µM) | 256 (≈ 550 µM) | 1.7 | 3.0 | 2.7 | 2.6 | 3.8 | 8.1 ± 0.7 (≈ 17.4 µM) | 64 (≈ 137 µM) | 64 (≈ 137 µM) | 11.8 ± 0.2 (≈ 25.3 µM) | 32 to 64 (≈ 68.7 to 137 µM) | 48 (≈ 103 µM) | 34.1 ± 0.3 (≈ 73.3 µM) | 128 (≈ 275 µM) | 19.7 ± 0.5 (≈ 42.3 µM) | MIC [3, 16]: 64 µg/mL (≈ 137 µM); IC50 [4, 17]: 21.2 ± 0.6 µg/mL (≈ 45.5 µM); MIC [4, 18]: 64 to 128 µg/mL (≈ 137 to 275 µM); MIC [5, 19]: 32 µg/mL (≈ 68.7 µM); IC50 [5, 20]: 22.3 ± 4 µg/mL (≈ 47.9 µM); MIC [5, 21]: 32 µg/mL (≈ 68.7 µM); MIC [6, 22]: 128 µg/mL (≈ 275 µM); MIC [6, 23]: 128 µg/mL (≈ 275 µM); IC50 [6, 24]: 15.3 ± 3.3 µg/mL (≈ 32.9 µM)
